This note sets out measurements from ChEMBL document CHEMBL4819022, “Discovery of JNJ-63576253: A Clinical Stage Androgen Receptor Antagonist for F877L Mutant and Wild-Type Castration-Resistant Prostate Cancer (mCRPC)” (J Med Chem, 2021).

The term pIC50 denotes the negative decadic logarithm of the IC50, by convention in mol/L. As usually defined, the Papp A→B is the apparent permeability from the apical to the basolateral side of a cell layer. The term AUC(0-t) denotes exposure summed from dosing to a finite time, without extrapolation to infinity. The term Cmax denotes the maximum level reached in the sampled fluid or tissue. In general, clearance refers to the rate of elimination divided by the concentration. The term half-life denotes how long it takes for the measured level to halve. A high value points to slow loss. In general, bioavailability refers to the share of a dose that reaches the circulation, judged against a reference dose that is usually intravenous. A lower bioavailability goes with little systemic uptake. One may read the pEC50 as −log10 of the EC50, conventionally taken in molar units. A lower pEC50 goes with a large EC50.

Residue numbers refer to the chain shown, from its start. pEC50, pIC50: −log10 of the molar value. Activity calls are given as the source filed them. The calls are words filed in the database; no cut-off is given here. A value given as a limit tells only on which side of the number the result lay.

For one series, the system named is VCaP. Description: Antiproliferative activity against human VCaP cells expressing wild-type androgen receptor assessed as reduction in cell viability incubated for 5 days in presence of R1881 by CellTiter-glo assay. The conditions noted are these: 120 h. The class given is functional, cell-based.
Series [1] can be described thus: Hepatotoxicity in dog assessed as liver necrosis administered orally as single dose for 14 days. Conditions: in vivo, po, 336 h, time 14 day. The class given is toxicity, tissue-based, Canis lupus familiaris.
Series [2] in a line: Hepatotoxicity in dog assessed as bile degeneration administered orally as single dose for 14 days. The class given is toxicity, tissue-based, Canis lupus familiaris. Conditions: in vivo, po, 336 h, time 14 day.
Series [3] in a line: Hepatotoxicity in dog assessed as increase in alanine aminotransferase level administered orally as single dose for 14 days. The class given is toxicity, Canis lupus familiaris. The conditions noted are these: in vivo, po, 336 h, time 14 day.
The nature of series [4]: Hepatotoxicity in dog assessed as increase in […] level administered orally as single dose for 14 days. The class given is toxicity, Canis lupus familiaris. Conditions: in vivo, po, 336 h, time 14 day.
Series [5] is described as follows: Hepatotoxicity in dog assessed as increase in gamma glutamyl transferase level administered orally as single dose for 14 days. The conditions noted are these: in vivo, po, 336 h, time 14 day. The class given is toxicity, Canis lupus familiaris.
A short description of series [6]: Drug metabolism in dog liver microsomes assessed as unchanged parent compound at 10 uM incubated for 60 mins in presence of glutathione by LC-MS/MS analysis. The class given is ADME, Canis lupus familiaris, Microsome. Conditions: read-out: Drug metabolism. A general note: Microsomes from liver hold many membrane-bound enzymes, among them those of drug oxidation.

Series [7] can be described thus: Drug metabolism in dog liver microsomes assessed as unchanged parent compound at 10 uM incubated for 60 mins in presence of glutathione and NADPH by LC-MS/MS analysis. The class given is ADME, Canis lupus familiaris, Microsome. Conditions: read-out: Drug metabolism.
Series [8] is described as follows: Apparent passive permeability from apical to basolateral side in MDCK-MDR1 cells in presence P-gp inhibitor. The class given is ADME, cell-based, Canis lupus familiaris. The conditions noted are these: dog, MDCK-MDR1, with P-gp inhibitor (name and concentration not stated).
Series [9] can be described thus: AUC(0 to last) in CD1 mouse at 10 mg/kg, po. The class given is ADME, organism-based. The arrangement: route oral, time 0 - last, dose 10 mg/kg. The conditions noted are these: in vivo.
Series [10] in a line: Cmax in CD1 mouse at 10 mg/kg, po. Conditions: in vivo. The arrangement: route oral, dose 10 mg/kg. The class given is ADME, organism-based.
Series [11] in a line: Clearance in CD1 mouse at 2 mg/kg, iv. The class given is ADME, organism-based. Conditions: in vivo.
Series [12] in a line: Half life in CD1 mouse at 2 mg/kg, iv. The class given is ADME, organism-based. The conditions noted are these: in vivo.
Series [13] can be described thus: Volume of distribution at steady state in CD1 mouse at 2 mg/kg, iv. The class given is ADME, organism-based. The conditions noted are these: in vivo, read-out: Vdss.
Series [14] can be described thus: Oral bioavailability in CD1 mouse at 10 mg/kg. The conditions noted are these: in vivo. The class given is ADME, organism-based.
Series [15] has as its target T1, Androgen receptor (Rattus norvegicus) (UniProt P15207).
T1 sequence (whole entry): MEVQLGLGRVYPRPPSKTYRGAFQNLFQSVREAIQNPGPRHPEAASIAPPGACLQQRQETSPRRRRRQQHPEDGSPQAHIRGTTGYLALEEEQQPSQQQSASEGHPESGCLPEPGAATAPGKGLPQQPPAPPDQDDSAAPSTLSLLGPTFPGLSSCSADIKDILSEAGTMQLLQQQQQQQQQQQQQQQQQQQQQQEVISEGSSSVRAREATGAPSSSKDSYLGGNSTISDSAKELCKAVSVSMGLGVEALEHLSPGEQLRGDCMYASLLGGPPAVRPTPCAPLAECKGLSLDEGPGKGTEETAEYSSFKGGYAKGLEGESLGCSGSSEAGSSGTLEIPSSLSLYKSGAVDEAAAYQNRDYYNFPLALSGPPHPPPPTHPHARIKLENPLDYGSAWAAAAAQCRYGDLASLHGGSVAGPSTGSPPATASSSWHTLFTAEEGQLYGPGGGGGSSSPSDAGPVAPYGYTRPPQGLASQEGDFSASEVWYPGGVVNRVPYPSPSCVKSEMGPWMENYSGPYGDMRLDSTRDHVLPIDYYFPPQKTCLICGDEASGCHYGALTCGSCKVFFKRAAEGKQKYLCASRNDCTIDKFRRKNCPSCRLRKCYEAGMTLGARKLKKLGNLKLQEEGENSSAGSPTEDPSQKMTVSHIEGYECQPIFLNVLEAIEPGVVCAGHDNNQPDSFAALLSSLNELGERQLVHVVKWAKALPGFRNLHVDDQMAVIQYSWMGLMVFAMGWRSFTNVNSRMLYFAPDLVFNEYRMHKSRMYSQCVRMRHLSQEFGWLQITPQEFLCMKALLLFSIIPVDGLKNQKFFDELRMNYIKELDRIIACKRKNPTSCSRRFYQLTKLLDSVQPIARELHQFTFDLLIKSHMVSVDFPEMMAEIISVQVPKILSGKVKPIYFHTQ
Kind of series: In vivo antagonist activity at AR in peripubertal castrated male Sprague-Dawley rat assessed as inhibition of testosterone propionate-induced increase in paired cowper's gland weight at 10 mg/kg, po QD for 10 days measured 24 hrs post last dose by Hershberger's assay. The class given is functional, organism-based. Conditions: time 10.0 day.

For series [16], the target named is T1, Androgen receptor (Rattus norvegicus). Kind of series: In vivo antagonist activity at AR in peripubertal castrated male Sprague-Dawley rat assessed as inhibition of testosterone propionate-induced increase in seminal vesicle with fluid and coagulating gland weight at 10 mg/kg, po QD for 10 days measured 24 hrs post last dose by Hershberger's assay. The class given is functional, organism-based. The conditions noted are these: time 10.0 day.

Series [17] has the same target. Kind of series: In vivo antagonist activity at AR in peripubertal castrated male Sprague-Dawley rat assessed as inhibition of testosterone propionate-induced increase in glans penis weight at 10 mg/kg, po QD for 10 days measured 24 hrs post last dose by Hershberger's assay. The class given is functional, organism-based. The conditions noted are these: time 10.0 day.

Series [18] shares this target. Description: In vivo antagonist activity at AR in peripubertal castrated male Sprague-Dawley rat assessed as inhibition of testosterone propionate-induced increase in ventral prostate weight at 10 mg/kg, po QD for 10 days measured 24 hrs post last dose by Hershberger's assay. The class given is functional, organism-based. The conditions noted are these: time 10.0 day.

The target is the same in series [19]. Description: In vivo antagonist activity at AR in peripubertal castrated male Sprague-Dawley rat assessed as inhibition of testosterone propionate-induced increase in levator […] complex weight at 10 mg/kg, po QD for 10 days measured 24 hrs post last dose by Hershberger's assay. The class given is functional, organism-based. The conditions noted are these: time 10.0 day.

Series [20] deals with liver microsomes (Homo sapiens). Description: Half life in human liver microsomes.
Series [21] concerns the target T2, Androgen receptor (Homo sapiens, UniProt P10275).
T2 sequence (P10275 whole entry): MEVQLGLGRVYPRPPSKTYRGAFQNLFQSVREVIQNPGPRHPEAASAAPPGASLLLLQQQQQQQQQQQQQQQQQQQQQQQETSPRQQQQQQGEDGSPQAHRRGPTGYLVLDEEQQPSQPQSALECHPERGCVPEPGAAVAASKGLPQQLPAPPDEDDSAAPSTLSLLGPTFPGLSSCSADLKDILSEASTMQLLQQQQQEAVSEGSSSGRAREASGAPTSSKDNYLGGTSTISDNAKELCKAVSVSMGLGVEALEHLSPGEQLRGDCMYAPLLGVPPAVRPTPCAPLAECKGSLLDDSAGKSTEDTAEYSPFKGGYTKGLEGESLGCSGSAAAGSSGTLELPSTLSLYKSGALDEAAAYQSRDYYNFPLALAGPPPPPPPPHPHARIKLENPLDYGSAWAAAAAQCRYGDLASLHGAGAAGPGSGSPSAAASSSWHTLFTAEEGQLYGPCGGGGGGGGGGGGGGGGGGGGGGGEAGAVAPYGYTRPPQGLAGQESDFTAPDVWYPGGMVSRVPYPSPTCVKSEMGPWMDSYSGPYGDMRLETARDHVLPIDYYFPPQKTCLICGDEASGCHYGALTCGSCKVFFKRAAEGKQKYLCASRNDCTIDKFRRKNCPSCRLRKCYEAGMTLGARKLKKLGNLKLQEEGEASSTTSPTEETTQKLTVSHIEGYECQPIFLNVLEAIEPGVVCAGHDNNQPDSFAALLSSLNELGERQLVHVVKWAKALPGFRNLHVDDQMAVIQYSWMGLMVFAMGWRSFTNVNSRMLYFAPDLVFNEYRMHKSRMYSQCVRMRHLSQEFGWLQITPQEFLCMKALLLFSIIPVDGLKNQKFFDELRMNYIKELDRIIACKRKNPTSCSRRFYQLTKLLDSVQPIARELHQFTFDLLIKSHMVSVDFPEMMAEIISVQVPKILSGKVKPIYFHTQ
Kind of series: Antagonist activity at AR wild-type (unknown origin) transfected in human LNCAP cells cotransfected with ARE-LUC incubated for 20 to 24 hrs in presence of AR agonist R1881 by steady-glo luciferase reporter gene assay. The class given is cell-based.

Series [22] has as its system T3, Androgen receptor (Homo sapiens), P10275 [F877L].
T3 sequence (whole entry): T2 sequence (P10275 whole entry) with F877L
Kind of series: Antagonist activity at AR F877L mutant (unknown origin) transfected in human LNCAP cells cotransfected with ARE-LUC incubated for 20 to 24 hrs in presence of AR agonist R1881 by steady-glo luciferase reporter gene assay relative to control. The conditions noted are these: filed as antagonist, time 20-24 hrs. The class given is cell-based. On the technique in general: In a reporter assay the amount or activity of a reporter protein is the signal.

For series [23], the target named is T4, Androgen receptor (Homo sapiens, UniProt P10275, F877L).
Series [24] deals with T4, Androgen receptor. The source holds these as a separate data set.
Series [25] concerns the target T1, Androgen receptor (Rattus norvegicus). The conditions noted are these: Sprague-Dawley, dose 30.0 mg/kg, time 10.0 day.
Series [26] shares this target. The conditions noted are these: Sprague-Dawley, dose 30.0 mg/kg, time 10.0 day. The source holds these as a separate data set.
Series [27] shares this target. Conditions: Sprague-Dawley, dose 30.0 mg/kg, time 10.0 day. This is another data set of the same source.
Series [28] shares this target. The conditions noted are these: Sprague-Dawley, dose 30.0 mg/kg, time 10.0 day. The source holds these as a separate data set.
Series [29] shares this target. The conditions noted are these: Sprague-Dawley, dose 30.0 mg/kg, time 10.0 day. The source holds these as a separate data set.

T4 sequence (P10275 whole entry F877L): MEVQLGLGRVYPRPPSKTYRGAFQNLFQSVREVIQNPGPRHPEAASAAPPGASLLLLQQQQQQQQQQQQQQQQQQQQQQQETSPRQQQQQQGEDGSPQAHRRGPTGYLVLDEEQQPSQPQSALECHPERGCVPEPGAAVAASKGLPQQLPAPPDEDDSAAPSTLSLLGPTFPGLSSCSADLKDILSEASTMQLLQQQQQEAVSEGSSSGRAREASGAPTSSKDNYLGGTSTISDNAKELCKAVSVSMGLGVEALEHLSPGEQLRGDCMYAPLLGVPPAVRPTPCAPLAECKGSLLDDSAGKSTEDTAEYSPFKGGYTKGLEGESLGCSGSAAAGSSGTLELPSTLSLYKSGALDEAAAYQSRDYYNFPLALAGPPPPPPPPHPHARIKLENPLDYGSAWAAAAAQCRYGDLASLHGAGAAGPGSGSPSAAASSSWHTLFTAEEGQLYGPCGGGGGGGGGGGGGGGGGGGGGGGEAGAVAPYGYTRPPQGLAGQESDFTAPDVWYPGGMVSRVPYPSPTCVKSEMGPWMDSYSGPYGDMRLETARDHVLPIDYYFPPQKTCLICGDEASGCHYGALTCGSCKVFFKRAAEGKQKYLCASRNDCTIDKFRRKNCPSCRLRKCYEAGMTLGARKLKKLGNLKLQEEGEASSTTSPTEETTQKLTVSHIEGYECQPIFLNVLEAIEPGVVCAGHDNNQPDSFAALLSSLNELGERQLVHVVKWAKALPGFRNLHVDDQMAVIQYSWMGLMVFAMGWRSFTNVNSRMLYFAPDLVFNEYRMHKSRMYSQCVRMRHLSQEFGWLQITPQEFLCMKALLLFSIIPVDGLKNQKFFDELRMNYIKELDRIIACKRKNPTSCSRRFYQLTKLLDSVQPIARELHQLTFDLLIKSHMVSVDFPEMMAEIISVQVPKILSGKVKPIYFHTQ

`N#Cc1ncc(N2C(=O)C3(CCC3)N(c3ccc(OC4CCNCC4)cc3)C2=S)cc1C(F)(F)F`: the pIC50 in the series with VCaP is 6.51. The Activity entry in series [1], in series [2], in series [3], in series [4] and in [5] was “Toxic” each time. Further, the remaining at 1 h, 10 µM in [6] was found to be 100%; in [7], 99.8%. Moreover, the Papp A→B in [8] stood at 6.8 ×10⁻⁶ cm/s. In series [9] (CD1, mouse), this compound returned an area under the curve AUC(0-t) of 10400 ng·h/mL. In [10], this compound returned a Cmax of 1170 nM. This compound yielded a clearance in series [11] of 8.3 mL/min/kg. Also, the half-life in series [12] is 10.5 h; in series [20] it was over 3 h. For the same compound, the Vd in series [13] came out at 5.56 L/kg. Further, the bioavailability in series [14] (CD1, mouse) was found to be 49%. For the same compound, the inhibition result in series [15], in [16], in [17], in series [18] and in [19] was “Active” each time.
`COc1cc(N2C(=O)C3(CCC3)N(c3ccc(OC4CCN(C)CC4)nc3)C2=S)cnc1C#N`: the results for the pIC50 on Androgen receptor [21], in the series with VCaP and at Androgen receptor [24] were 6.79, 6.56 and 6.99, respectively. In addition, in series [22], the Imax was over 90%. Besides, the Papp A→B in [8] came out at 22.1 ×10⁻⁶ cm/s. The AUClast in series [9] (mouse) was 6100 ng·h/mL. Also, the Cmax in [10] turned out to be 1320 nM. The figures for the half-life in series [12] and in [20] were 4.2 h and 2.25 h, respectively. In [13], the Vd was found to be 2.93 L/kg. This compound returned a F in series [14] (mouse, 10 mg/kg) of 116%. On Androgen receptor [23], this compound had a pEC50 of 6.08. In addition, the inhibition result in [25], in series [26], in series [27], in series [28] and in [29] was “Active” each time.
